Assay results published in ChEMBL document CHEMBL5543077, “A further pocket or conformational plasticity by mapping COX-1 catalytic site through modified-mofezolac structure-inhibitory activity relationships and their antiplatelet behavior” (Eur J Med Chem, 2024).

Columns and labels:
[1] = target: T1, Prostaglandin G/H synthase 2 (Homo sapiens, UniProt P35354)
T1 sequence (P35354 whole entry): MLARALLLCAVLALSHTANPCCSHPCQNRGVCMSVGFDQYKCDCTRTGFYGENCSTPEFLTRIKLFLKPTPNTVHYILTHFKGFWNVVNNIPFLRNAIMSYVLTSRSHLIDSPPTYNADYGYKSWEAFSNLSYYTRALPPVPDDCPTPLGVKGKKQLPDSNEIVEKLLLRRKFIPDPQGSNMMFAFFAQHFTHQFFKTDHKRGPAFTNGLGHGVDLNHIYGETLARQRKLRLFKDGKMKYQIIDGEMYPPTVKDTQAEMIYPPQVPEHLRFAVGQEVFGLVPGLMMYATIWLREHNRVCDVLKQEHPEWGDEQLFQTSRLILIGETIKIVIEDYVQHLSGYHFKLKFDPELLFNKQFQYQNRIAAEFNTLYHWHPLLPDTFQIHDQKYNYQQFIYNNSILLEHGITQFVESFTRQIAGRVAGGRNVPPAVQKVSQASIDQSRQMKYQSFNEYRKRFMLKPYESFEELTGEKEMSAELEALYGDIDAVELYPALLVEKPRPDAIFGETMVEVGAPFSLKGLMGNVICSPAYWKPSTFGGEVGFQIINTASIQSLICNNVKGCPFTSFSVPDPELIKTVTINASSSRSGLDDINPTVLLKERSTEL
Description: Inhibition of human COX-2 by colorimetric assay

[2] = target: T2, Prostaglandin G/H synthase 1 (Ovis aries, UniProt P05979)
T2 sequence (P05979 whole entry): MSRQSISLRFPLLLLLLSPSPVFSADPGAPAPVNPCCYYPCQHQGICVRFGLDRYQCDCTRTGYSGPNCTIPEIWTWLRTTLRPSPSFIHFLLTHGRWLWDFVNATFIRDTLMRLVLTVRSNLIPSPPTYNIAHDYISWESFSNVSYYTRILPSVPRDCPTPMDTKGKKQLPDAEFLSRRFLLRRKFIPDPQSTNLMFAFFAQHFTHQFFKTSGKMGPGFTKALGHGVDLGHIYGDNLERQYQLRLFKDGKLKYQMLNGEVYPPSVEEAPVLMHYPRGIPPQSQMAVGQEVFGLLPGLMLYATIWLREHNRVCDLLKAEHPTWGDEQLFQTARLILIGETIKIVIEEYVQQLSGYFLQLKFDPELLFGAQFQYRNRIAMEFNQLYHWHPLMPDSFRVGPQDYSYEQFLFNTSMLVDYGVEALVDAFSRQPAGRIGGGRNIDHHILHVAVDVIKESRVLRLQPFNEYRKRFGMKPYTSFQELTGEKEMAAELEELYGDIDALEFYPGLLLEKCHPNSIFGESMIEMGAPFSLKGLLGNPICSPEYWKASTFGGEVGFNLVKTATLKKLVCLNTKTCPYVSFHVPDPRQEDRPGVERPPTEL
Description: Inhibition of ovine COX-1 by colorimetric assay

Platelet = assay: cells; format: functional, cell-based; conditions: Homo sapiens, 2 min
Description: Antiplatelet activity in human platelets assessed as inhibition of arachidonic acid-induced platelet aggregation measured after 2 mins by turbidimetric analysis

[3] = target: T1, Prostaglandin G/H synthase 2; remark: listed apart in the source
Description: Inhibition of recombinant human COX-2 measured after 5 mins by absorbance based analysis

[4] = target: T1, Prostaglandin G/H synthase 2; remark: listed apart in the source
in vitro [5] = conditions: chlorocebus sabaeus, vero
Description: Cytotoxicity against African green monkey Vero cells assessed as cell viability at 100 uM measured after 24 hrs by MTT assay relative to control

in vitro [6] = conditions: human, erythrocyte
Description: Hemolytic activity in human red blood cells assessed as hemolysis at 100 uM measured after 3 hrs by microplate reader assay relative to control

[7] = target: T2, Prostaglandin G/H synthase 1; remark: listed apart in the source
Description: Inhibition of ovine COX-1

[8] = target: T2, Prostaglandin G/H synthase 1; remark: listed apart in the source
Description: Inhibition of ovine COX-1 measured after 5 mins by absorbance based analysis

Structure (SMILES)	IC50 [1] [µM]	IC50 [2] [µM]	other results
O=C(O)Cc1onc(-c2ccc(OCc3ccccc3)cc2)c1-c1ccc(OCc2ccccc2)cc1	> 50	> 50	
CCCOc1ccc(-c2noc(CC(=O)O)c2-c2ccc(OCCC)cc2)cc1	3.6	> 50	
COc1ccc(-c2noc(C)c2-c2ccc(OCc3ccccc3)cc2)cc1	> 50	> 50	
CC(=O)Oc1ccccc1C(=O)O [ASPIRIN]			IC50 (Platelet): 36.2 µM
C=CCc1cccc(-c2nc(-c3ccccc3Cl)c(-c3ccccc3Cl)[nH]2)c1OC(=O)COC			IC50 [3]: > 100 µM
Cc1onc(-c2ccc(Cl)o2)c1-c1ccccc1			IC50 [4]: > 100 µM
CCCCOc1ccc(-c2c(-c3ccc(OC)cc3)noc2C)cc1	> 50	> 50	
CCOc1ccc(-c2c(-c3ccc(OC)cc3)noc2C)cc1	> 50	0.046	IC50 (Platelet): 2.5 µM; viability at 24 h, 100 µM (in vitro [5]): 64%
CCOc1ccc(-c2noc(CC(=O)O)c2-c2ccc(OCC)cc2)cc1	> 50	0.12	IC50 (Platelet): 0.7 µM; hemolysis at 3 h, 100 µM (in vitro [6]): 0%; viability at 24 h, 100 µM (in vitro [5]): > 70%
COc1ccc(-c2nc(C(=O)N3CCN(C)CC3)sc2-c2ccc(OC)cc2)cc1 [FR-122047]			IC50 [7]: 0.028 µM
COc1ccc(-c2noc(C)c2-c2ccc(OC(C)(C)C)cc2)cc1	> 50	> 50	
CCCOc1ccc(-c2noc(C)c2-c2ccc(OCCC)cc2)cc1	> 50	> 50	
CCCOc1ccc(-c2c(-c3ccc(OC)cc3)noc2C)cc1	> 50	1.3	hemolysis at 3 h, 100 µM (in vitro [6]): 0%
C=CCc1cccc(-c2nc(-c3ccccc3Cl)c(-c3ccccc3Cl)[nH]2)c1OC(C)=O			IC50 [3]: > 100 µM; IC50 [8]: > 100 µM
CCCCOc1ccc(-c2noc(C)c2-c2ccc(OCCCC)cc2)cc1	> 50	> 50	
COc1ccc(-c2noc(CC(=O)O)c2-c2ccc(OC(C)(C)C)cc2)cc1	> 50	> 50	

Structure (SMILES)	IC50 [1] [µM]	IC50 [2] [µM]	other results
CCCCOc1ccc(-c2c(-c3ccc(OC)cc3)noc2CC(=O)O)cc1	0.45	0.32	
CCOc1ccc(-c2c(-c3ccc(OC)cc3)noc2CC(=O)O)cc1	> 50	0.12	IC50 (Platelet): 29.5 µM; hemolysis at 3 h, 100 µM (in vitro [6]): 0%; viability at 24 h, 100 µM (in vitro [5]): > 70%
COc1ccc(-c2noc(C)c2-c2ccc(Oc3ccccc3)cc2)cc1	> 50	> 50	
O=C(O)Cc1onc(-c2ccc(Oc3ccccc3)cc2)c1-c1ccc(Oc2ccccc2)cc1	> 50	> 50	
CCCOc1ccc(-c2c(-c3ccc(OC)cc3)noc2CC(=O)O)cc1	6.9	0.079	IC50 (Platelet): 72.1 µM; hemolysis at 3 h, 100 µM (in vitro [6]): 0%; viability at 24 h, 100 µM (in vitro [5]): > 70%
COc1ccc(-c2noc(CC(=O)O)c2-c2ccc(OCc3ccccc3)cc2)cc1	> 50	0.45	IC50 (Platelet): > 100 µM; hemolysis at 3 h, 100 µM (in vitro [6]): 0%; viability at 24 h, 100 µM (in vitro [5]): > 70%
CCOc1ccc(N)cc1C(=O)Nc1cccc(C(F)(F)F)c1			IC50 [7]: 3.2 µM; IC50 [4]: > 100 µM
CC(C)(C)Oc1ccc(-c2noc(CC(=O)O)c2-c2ccc(OC(C)(C)C)cc2)cc1	> 50	> 50	
COc1ccc(-c2noc(CC(=O)O)c2-c2ccc(Oc3ccccc3)cc2)cc1	> 50	> 50	
CCc1onc(-c2ccccc2)c1-c1ccccc1			IC50 [7]: 0.05 µM; IC50 [4]: > 1.49 µM
Cc1onc(-c2ccc(Oc3ccccc3)cc2)c1-c1ccc(Oc2ccccc2)cc1	> 50	> 50	
Cc1onc(-c2ccccc2)c1-c1ccccc1			IC50 [7]: 0.09 µM
Cc1onc(-c2ccc(OCc3ccccc3)cc2)c1-c1ccc(OCc2ccccc2)cc1	> 50	> 50	
CCCCOc1ccc(-c2noc(CC(=O)O)c2-c2ccc(OCCCC)cc2)cc1	> 50	0.053	IC50 (Platelet): > 100 µM; hemolysis at 3 h, 100 µM (in vitro [6]): 0%; viability at 24 h, 100 µM (in vitro [5]): > 70%
CCOc1ccc(-c2noc(C)c2-c2ccc(OCC)cc2)cc1	> 50	0.23	IC50 (Platelet): 1 µM; hemolysis at 3 h, 100 µM (in vitro [6]): 0%; viability at 24 h, 100 µM (in vitro [5]): > 70%
Cc1onc(-c2ccc(OC(C)(C)C)cc2)c1-c1ccc(OC(C)(C)C)cc1	> 50	> 50	
